Assay results: paper PMC8779868, “Uncovering Novel Plasma Membrane Carboxylate Transporters in the Yeast Cyberlindnera jadinii” (Journal of Fungi, 2022)

Columns and labels:
CjAto5 = target: T1, CjAto5 (Williopsis jadinii, UniProt A0A1E4RU05); assay: […]-succinate uptake, initial rates in S. cerevisiae IMX1000; type: cell-based; settings: pH 5.0, 30 °C; labelled compound
T1 construct: gene CYBJADRAFT_178915; full ORF in p416GPD, expressed in S. cerevisiae IMX1000; cloned from DSM 2361 DNA
T1 sequence (A0A1E4RU05 1-272): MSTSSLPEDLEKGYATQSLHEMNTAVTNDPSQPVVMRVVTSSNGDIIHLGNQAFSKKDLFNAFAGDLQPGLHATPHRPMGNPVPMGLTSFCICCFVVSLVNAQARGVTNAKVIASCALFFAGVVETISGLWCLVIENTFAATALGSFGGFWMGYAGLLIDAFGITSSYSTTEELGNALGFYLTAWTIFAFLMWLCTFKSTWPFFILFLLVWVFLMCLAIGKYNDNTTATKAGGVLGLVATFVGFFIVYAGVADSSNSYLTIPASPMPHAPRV

CjAto2 = target: T2, CjAto2 (Williopsis jadinii, UniProt A0A1E4S9G0); assay: as above; type: cell-based; settings: pH 5.0, 30 °C; labelled compound
T2 construct: gene CYBJADRAFT_7539; full ORF in p416GPD, expressed in S. cerevisiae IMX1000; cloned from DSM 2361 DNA
T2 sequence (A0A1E4S9G0 1-262): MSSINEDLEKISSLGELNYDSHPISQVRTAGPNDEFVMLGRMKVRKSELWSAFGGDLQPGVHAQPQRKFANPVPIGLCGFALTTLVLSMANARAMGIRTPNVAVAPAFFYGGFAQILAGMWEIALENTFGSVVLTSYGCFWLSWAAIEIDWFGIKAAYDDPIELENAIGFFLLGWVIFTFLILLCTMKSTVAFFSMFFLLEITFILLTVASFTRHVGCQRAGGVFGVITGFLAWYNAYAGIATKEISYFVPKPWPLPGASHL

Work on `O=C(O)CCC(=O)O` [succinic acid] yielded a Km (CjAto5) of 450 ± 90 µM and a Km (CjAto2) of 3380 ± 820 µM.
